For five compounds, IC50 and viability, T/C results are on record in PubChem BioAssay AID1845217 (Molecular Pharmacology Branch, DTP, NCI, 2023).

For orientation: IC50 means the midpoint of a concentration-inhibition curve. For orientation: viability, T/C means the result in the treated group divided by that in the control group, in per cent.

Several values for one entry are separate records, joined by “and”; a condition that tells them apart may be missing. Equal values may be shown once. Where only a bound is given, the exact number is not on record here.

The test system of the assay is VA-ES-BJ tumor spheroid viability. The assay is described as follows: Anticancer human tumor VA-ES-BJ cell line growth inhibition.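 On all read-outs here: spheroids exposed to compounds for seven days.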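 On viability, T/C: percent of DMSO vehicle control viability so 100% = untreated growth.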 Particulars: spheroids with HUVEC and MSC; for viability, T/C: stronger effect = lower value. The gist of the method: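 Single agents and combinations were tested on spheroids built from tumor cells plus HUVEC and hMSC, at half-log dilutions starting at or near clinical Cmax, else 10 microM; final DMSO 0.25% (v/v).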

The mark [1] stands for this setting: curve of first compound, second compound 0.003 µM.
Setting [2] is: curve of first compound, second compound 0.00949 µM.
Setting [3] is: curve of first compound, second compound 0.03 µM.
[4] abbreviates: curve of first compound, second compound 0.0949 µM.
Setting [5] is: curve of first compound, second compound 0.3 µM.

In the case of `CNCc1ccc(-c2cc(-c3nc(-c4ccc(S(=O)(=O)C(C)C)cc4)cnc3N)on2)cc1` + CC[C@@]1(O)C(=O)OCc2c1cc1n(c2=O)Cc2cc3c(CN(C)C)c(O)ccc3nc2-1, the IC50 was 0.258 µM under setting [1]; 0.139 µM under setting [2]; under 0.00949 µM under setting [3]; under 0.00949 µM under setting [4]; under 0.00949 µM under setting [5]. In addition, the viability, T/C is 90.9% (second compound 0.003 µM, first compound 0.00949 µM); 83% (second compound 0.003 µM, first compound 0.03 µM); 71.7% (second compound 0.003 µM, first compound 0.0949 µM); 49.4% (second compound 0.003 µM, first compound 0.3 µM); 15.1% (second compound 0.003 µM, first compound 0.949 µM); 6.06% (second compound 0.003 µM, first compound 3 µM). The viability, T/C by setting is: (second compound 0.00949 µM, first compound 0.00949 µM) 86.5%; (second compound 0.00949 µM, first compound 0.03 µM) 81.1%; (second compound 0.00949 µM, first compound 0.0949 µM) 59%; (second compound 0.00949 µM, first compound 0.3 µM) 30.7%; (second compound 0.00949 µM, first compound 0.949 µM) 12.4%; (second compound 0.00949 µM, first compound 3 µM) 4.37%. Moreover, the viability, T/C is 42.3% (second compound 0.03 µM, first compound 0.00949 µM); 42.3% (second compound 0.03 µM, first compound 0.03 µM); 38.1% (second compound 0.03 µM, first compound 0.0949 µM); 27.9% (second compound 0.03 µM, first compound 0.3 µM); 9.05% (second compound 0.03 µM, first compound 0.949 µM); 3.26% (second compound 0.03 µM, first compound 3 µM). Also, the viability, T/C (second compound 0.0949 µM, first compound 0.00949 µM) is 8.5%; the viability, T/C (second compound 0.0949 µM, first compound 0.03 µM) was 10%; the viability, T/C (second compound 0.0949 µM, first compound 0.0949 µM) is 13.8%; the viability, T/C (second compound 0.0949 µM, first compound 0.3 µM) is 10.3%; the viability, T/C (second compound 0.0949 µM, first compound 0.949 µM) is 5.27%; the viability, T/C (second compound 0.0949 µM, first compound 3 µM) was 2.78%. The viability, T/C (second compound 0.3 µM, first compound 0.00949 µM) is 4.36%; the viability, T/C (second compound 0.3 µM, first compound 0.03 µM) is 5.51%; the viability, T/C (second compound 0.3 µM, first compound 0.0949 µM) is 5.44%; the viability, T/C (second compound 0.3 µM, first compound 0.3 µM) was 4.99%; the viability, T/C (second compound 0.3 µM, first compound 0.949 µM) was 4.31%; the viability, T/C (second compound 0.3 µM, first compound 3 µM) is 3.27%.

`Cc1cc(C)c(CNC(=O)c2cc(-c3ccc(CN4CCOCC4)cc3)cc3c2cnn3C2CCCC2)c(=O)[nH]1`: the viability, T/C runs as follows: (compound 0.0316 µM) 101% and 98% and 103%; (compound 0.1 µM) 100% and 106% and 101%; (compound 0.316 µM) 98.5% and 97.2% and 99.1%; (compound 1 µM) 103% (2×) and 100%; (compound 3.16 µM) 102% and 107% and 112%; (compound 10 µM) 91.8% and 91.9% and 104%. Further, the IC50 (curve of compound) was over 10 µM.

As to `Cc1sc2c(c1C)C(c1ccc(Cl)cc1)=NC(CC(=O)Nc1ccc(O)cc1)c1nnc(C)n1-2` (stereo unspecified), the viability, T/C (compound 0.00949 µM) is 72.1% and 86.4% and 77.2%; the viability, T/C (compound 0.03 µM) was 66.8% and 59.2% and 64.1%; the viability, T/C (compound 0.0949 µM) is 47.3% and 45% and 46.2%; the viability, T/C (compound 0.3 µM) is 30.5% and 32.6% and 28.8%; the viability, T/C (compound 0.949 µM) was 25.7% and 24.2% and 20.7%; the viability, T/C (compound 3 µM) is 18.6% and 22.5% and 15.8%. Also, under “curve of compound”, the IC50 is 0.0841 µM and 0.0609 µM and 0.0731 µM.

For `CC1COCCN1c1cc(-c2ccnn2C)c2ccnc(-c3ccn[nH]3)c2n1` (stereo unspecified) + CC[C@@]1(O)C(=O)OCc2c1cc1n(c2=O)Cc2cc3c(CN(C)C)c(O)ccc3nc2-1, the IC50 by setting is: under setting [1], 0.0563 µM; under setting [2], under 0.0316 µM; under setting [3], under 0.0316 µM; under setting [4], under 0.0316 µM; under setting [5], under 0.0316 µM. For the same compound, the viability, T/C was 63.9% (second compound 0.003 µM, first compound 0.0316 µM); 35.5% (second compound 0.003 µM, first compound 0.1 µM); 22.4% (second compound 0.003 µM, first compound 0.316 µM); 12.1% (second compound 0.003 µM, first compound 1 µM); 6.47% (second compound 0.003 µM, first compound 3.16 µM); 6.01% (second compound 0.003 µM, first compound 10 µM). Moreover, the viability, T/C runs as follows: (second compound 0.00949 µM, first compound 0.0316 µM) 40.4%; (second compound 0.00949 µM, first compound 0.1 µM) 27.1%; (second compound 0.00949 µM, first compound 0.316 µM) 21.2%; (second compound 0.00949 µM, first compound 1 µM) 8.86%; (second compound 0.00949 µM, first compound 3.16 µM) 5.91%; (second compound 0.00949 µM, first compound 10 µM) 5.08%. The viability, T/C (second compound 0.03 µM, first compound 0.0316 µM) is 22.6%; the viability, T/C (second compound 0.03 µM, first compound 0.1 µM) was 16.9%; the viability, T/C (second compound 0.03 µM, first compound 0.316 µM) was 12.8%; the viability, T/C (second compound 0.03 µM, first compound 1 µM) was 6.37%; the viability, T/C (second compound 0.03 µM, first compound 3.16 µM) is 4.95%; the viability, T/C (second compound 0.03 µM, first compound 10 µM) was 4.49%. Moreover, the viability, T/C is, setting by setting: (second compound 0.0949 µM, first compound 0.0316 µM) 8.54%; (second compound 0.0949 µM, first compound 0.1 µM) 7.09%; (second compound 0.0949 µM, first compound 0.316 µM) 6.46%; (second compound 0.0949 µM, first compound 1 µM) 5.74%; (second compound 0.0949 µM, first compound 3.16 µM) 4.46%; (second compound 0.0949 µM, first compound 10 µM) 4.49%. The viability, T/C reads like this: (second compound 0.3 µM, first compound 0.0316 µM) 6.2%; (second compound 0.3 µM, first compound 0.1 µM) 5.86%; (second compound 0.3 µM, first compound 0.316 µM) 4.85%; (second compound 0.3 µM, first compound 1 µM) 4.65%; (second compound 0.3 µM, first compound 3.16 µM) 4.8%; (second compound 0.3 µM, first compound 10 µM) 4.19%.

For `CC(C)n1c(=O)n(C)c2cnc3cc(F)c(-c4ccc(OCCCN5CCCCC5)nc4)cc3c21`, the viability, T/C was 77.7% and 93.7% and 97.1% (compound 0.0316 µM); 74.2% and 93.9% and 95.2% (compound 0.1 µM); 73.1% and 90.5% and 92.7% (compound 0.316 µM); 85.2% and 100% and 99% (compound 1 µM); 91.6% and 105% (2×) (compound 3.16 µM); 59.8% and 65.4% and 71.2% (compound 10 µM). In addition, the IC50 (curve of compound) is over 10 µM.
